Laboratory results reported in ChEMBL document CHEMBL1240381, “Spread of a chromosomal cefixime-resistant penA gene among different Neisseria gonorrhoeae lineages” (2010).
≈ marks a conversion by molar mass, not a printed value.

Columns and labels:
Assay type in all cases: functional
[1] = test system: Neisseria gonorrhoeae; test: Antimicrobial activity against Neisseria gonorrhoeae isolate NG0513 expressing chromosomal cefixime-resistant penA gene by agar dilution method
[2] = test system: Neisseria gonorrhoeae; test: Antimicrobial activity against Neisseria gonorrhoeae isolate NG0202 expressing chromosomal cefixime-resistant penA gene by agar dilution method
[3] = test system: Neisseria gonorrhoeae; test: Antimicrobial activity against Neisseria gonorrhoeae isolate NG0002 expressing chromosomal cefixime-resistant penA gene by agar dilution method
[4] = test system: Neisseria gonorrhoeae; test: Antimicrobial activity against Neisseria gonorrhoeae isolate NG0410 expressing chromosomal cefixime-resistant penA gene by agar dilution method
[5] = test system: Neisseria gonorrhoeae; test: Antimicrobial activity against Neisseria gonorrhoeae isolate NG0402 expressing chromosomal cefixime-resistant penA gene by agar dilution method
[6] = test system: Neisseria gonorrhoeae; test: Antimicrobial activity against Neisseria gonorrhoeae isolate NG9812 expressing chromosomal cefixime-resistant penA gene by agar dilution method
[7] = test system: Neisseria gonorrhoeae; test: Antimicrobial activity against Neisseria gonorrhoeae isolate NG9806 expressing chromosomal cefixime-resistant penA gene by agar dilution method
[8] = test system: Neisseria gonorrhoeae; test: Antimicrobial activity against Neisseria gonorrhoeae isolate NG0508 expressing chromosomal cefixime-resistant penA gene by agar dilution method
[9] = test system: Neisseria gonorrhoeae; test: Antimicrobial activity against Neisseria gonorrhoeae isolate NGON07-002 expressing chromosomal cefixime-resistant penA gene by agar dilution method
[10] = test system: Neisseria gonorrhoeae; test: Antimicrobial activity against Neisseria gonorrhoeae isolate NG0206 expressing chromosomal cefixime-resistant penA gene by agar dilution method
[11] = test system: Neisseria gonorrhoeae; test: Antimicrobial activity against Neisseria gonorrhoeae isolate NGON03-115 expressing chromosomal cefixime-resistant penA gene by agar dilution method
[12] = test system: Neisseria gonorrhoeae; test: Antimicrobial activity against Neisseria gonorrhoeae isolate NG9913 expressing chromosomal cefixime-resistant penA gene by agar dilution method
[13] = test system: Neisseria gonorrhoeae; test: Antimicrobial activity against Neisseria gonorrhoeae isolate NG0204 expressing chromosomal cefixime-resistant penA gene by agar dilution method
[14] = test system: Neisseria gonorrhoeae; test: Antimicrobial activity against Neisseria gonorrhoeae isolate NG0401 expressing chromosomal cefixime-resistant penA gene by agar dilution method
[15] = test system: Neisseria gonorrhoeae; test: Antimicrobial activity against Neisseria gonorrhoeae isolate NG0404 expressing chromosomal cefixime-resistant penA gene by agar dilution method
[16] = test system: Neisseria gonorrhoeae; test: Antimicrobial activity against Neisseria gonorrhoeae isolate NGON03-079 expressing chromosomal cefixime-resistant penA gene by agar dilution method
[17] = test system: Neisseria gonorrhoeae; test: Antimicrobial activity against Neisseria gonorrhoeae isolate NG9912 expressing chromosomal cefixime-resistant penA gene by agar dilution method
[18] = test system: Neisseria gonorrhoeae; test: Antimicrobial activity against Neisseria gonorrhoeae isolate NG0008 expressing chromosomal cefixime-resistant penA gene by agar dilution method
[19] = test system: Neisseria gonorrhoeae; test: Antimicrobial activity against Neisseria gonorrhoeae isolate NG0111 expressing chromosomal cefixime-resistant penA gene by agar dilution method
[20] = test system: Neisseria gonorrhoeae; test: Antimicrobial activity against Neisseria gonorrhoeae isolate NG0003 expressing chromosomal cefixime-resistant penA gene at […] after 16 hrs
[21] = test system: Neisseria gonorrhoeae; test: Antimicrobial activity against Neisseria gonorrhoeae isolate NG0512 expressing chromosomal cefixime-resistant penA gene by agar dilution method
[22] = test system: Neisseria gonorrhoeae; test: Antimicrobial activity against Neisseria gonorrhoeae isolate NG0312 expressing chromosomal cefixime-resistant penA gene by agar dilution method
[23] = test system: Neisseria gonorrhoeae; test: Antimicrobial activity against Neisseria gonorrhoeae isolate NG0511 expressing chromosomal cefixime-resistant penA gene by agar dilution method
[24] = test system: Neisseria gonorrhoeae; test: Antimicrobial activity against Neisseria gonorrhoeae isolate NG0311 expressing chromosomal cefixime-resistant penA gene by agar dilution method
[25] = test system: Neisseria gonorrhoeae; test: Antimicrobial activity against Neisseria gonorrhoeae isolate NGON03-092 expressing chromosomal cefixime-resistant penA gene by agar dilution method
[26] = test system: Neisseria gonorrhoeae; test: Antimicrobial activity against Neisseria gonorrhoeae isolate NG0202 expressing chromosomal cefixime-resistant penA gene at 0.031 ug/ml after 16 hrs
[27] = test system: Neisseria gonorrhoeae; test: Antimicrobial activity against Neisseria gonorrhoeae isolate NG0003 expressing chromosomal cefixime-resistant penA gene by agar dilution method
[28] = test system: Neisseria gonorrhoeae; test: Antimicrobial activity against Neisseria gonorrhoeae isolate NG0109 expressing chromosomal cefixime-resistant penA gene by agar dilution method
[29] = test system: Neisseria gonorrhoeae; test: Antimicrobial activity against Neisseria gonorrhoeae isolate NG0503 expressing chromosomal cefixime-resistant penA gene by agar dilution method
[30] = test system: Neisseria gonorrhoeae; test: Antimicrobial activity against Neisseria gonorrhoeae isolate NG0207 expressing chromosomal cefixime-resistant penA gene by agar dilution method
[31] = test system: Neisseria gonorrhoeae; test: Antimicrobial activity against Neisseria gonorrhoeae isolate NG0304 expressing chromosomal cefixime-resistant penA gene by agar dilution method
[32] = test system: Neisseria gonorrhoeae; test: Antimicrobial activity against Neisseria gonorrhoeae isolate NG0205 expressing chromosomal cefixime-resistant penA gene by agar dilution method
[33] = test system: Neisseria gonorrhoeae; test: Antimicrobial activity against Neisseria gonorrhoeae isolate NG0110 expressing chromosomal cefixime-resistant penA gene by agar dilution method
[34] = test system: Neisseria gonorrhoeae; test: Antimicrobial activity against Neisseria gonorrhoeae isolate NG0514 expressing chromosomal cefixime-resistant penA gene by agar dilution method
[35] = test system: Neisseria gonorrhoeae; test: Antimicrobial activity against Neisseria gonorrhoeae isolate NG9911 expressing chromosomal cefixime-resistant penA gene by agar dilution method
[36] = test system: Neisseria gonorrhoeae; test: Antimicrobial activity against Neisseria gonorrhoeae isolate NG0303 expressing chromosomal cefixime-resistant penA gene by agar dilution method
[37] = test system: Neisseria gonorrhoeae; test: Antimicrobial activity against Neisseria gonorrhoeae isolate NG9811 expressing chromosomal cefixime-resistant penA gene by agar dilution method
[38] = test system: Neisseria gonorrhoeae; test: Antimicrobial activity against Neisseria gonorrhoeae isolate NG9914 expressing chromosomal cefixime-resistant penA gene by agar dilution method
[39] = test system: Neisseria gonorrhoeae; test: Antimicrobial activity against Neisseria gonorrhoeae isolate NG0509 expressing chromosomal cefixime-resistant penA gene by agar dilution method
[40] = test system: Neisseria gonorrhoeae; test: Antimicrobial activity against Neisseria gonorrhoeae isolate NG0201 expressing chromosomal cefixime-resistant penA gene by agar dilution method
[41] = test system: Neisseria gonorrhoeae; test: Antimicrobial activity against Neisseria gonorrhoeae isolate NG0202 expressing chromosomal cefixime-resistant penA gene at 2 ug/ml after 16 hrs
[42] = test system: Neisseria gonorrhoeae; test: Antimicrobial activity against Neisseria gonorrhoeae isolate NG0003 expressing chromosomal cefixime-resistant penA gene at 2 ug/ml after 16 hrs

C=CC1=C(C(=O)O)N2C(=O)[C@@H](NC(=O)/C(=N\OCC(=O)O)c3csc(N)n3)[C@H]2SC1 [CEFIXIME]
MIC [1]: 0.5 µg/mL (≈ 1.1 µM)
MIC [2]: 0.004 µg/mL (≈ 0.00882 µM)
MIC [3]: 0.25 µg/mL (≈ 0.551 µM)
MIC [4]: 0.5 µg/mL (≈ 1.1 µM)
MIC [5]: 0.031 µg/mL (≈ 0.0684 µM)
MIC [6]: 0.25 µg/mL (≈ 0.551 µM)
MIC [7]: 0.25 µg/mL (≈ 0.551 µM)
MIC [8]: 0.25 µg/mL (≈ 0.551 µM)
MIC [9]: 0.25 µg/mL (≈ 0.551 µM)
MIC [10]: 0.25 µg/mL (≈ 0.551 µM)
MIC [11]: 0.5 µg/mL (≈ 1.1 µM)
MIC [12]: 0.25 µg/mL (≈ 0.551 µM)
MIC [13]: 0.25 µg/mL (≈ 0.551 µM)
MIC [14]: 0.5 µg/mL (≈ 1.1 µM)
MIC [15]: 0.5 µg/mL (≈ 1.1 µM)
MIC [16]: 0.5 µg/mL (≈ 1.1 µM)
MIC [17]: 0.25 µg/mL (≈ 0.551 µM)
MIC [18]: 0.25 µg/mL (≈ 0.551 µM)
MIC [19]: 0.25 µg/mL (≈ 0.551 µM)
CFU [20]: 1.01 ×10⁸ /ml
MIC [21]: 0.25 µg/mL (≈ 0.551 µM)
MIC [22]: 0.5 µg/mL (≈ 1.1 µM)
MIC [23]: 0.25 µg/mL (≈ 0.551 µM)
MIC [24]: 0.5 µg/mL (≈ 1.1 µM)
MIC [25]: 0.25 µg/mL (≈ 0.551 µM)
CFU [26]: <10 mL⁻¹
MIC [27]: 0.25 µg/mL (≈ 0.551 µM)
MIC [28]: 0.25 µg/mL (≈ 0.551 µM)
MIC [29]: 0.25 µg/mL (≈ 0.551 µM)
MIC [30]: 0.25 µg/mL (≈ 0.551 µM)
MIC [31]: 1 µg/mL (≈ 2.21 µM)
MIC [32]: 0.25 µg/mL (≈ 0.551 µM)
MIC [33]: 0.25 µg/mL (≈ 0.551 µM)
MIC [34]: 0.25 µg/mL (≈ 0.551 µM)
MIC [35]: 0.25 µg/mL (≈ 0.551 µM)
MIC [36]: 0.25 µg/mL (≈ 0.551 µM)
MIC [37]: 0.25 µg/mL (≈ 0.551 µM)
MIC [38]: 0.25 µg/mL (≈ 0.551 µM)
MIC [39]: 0.25 µg/mL (≈ 0.551 µM)
MIC [40]: 0.25 µg/mL (≈ 0.551 µM)

O=C(O)c1cn(C2CC2)c2cc(N3CCNCC3)c(F)cc2c1=O [CIPROFLOXACIN]
MIC [2]: 8 µg/mL (≈ 24.1 µM)
CFU [41]: 0.71 ×10⁸ /ml
MIC [27]: 0.031 µg/mL (≈ 0.0936 µM)
CFU [42]: <10 mL⁻¹
